Source: publication PMC2811193, “Complementary Roles in Cancer Prevention: Protease Inhibitor Makes the Cancer Preventive Peptide Lunasin Bioavailable” (PLoS ONE, 2010)

What was measured:
[1] = Lunasin in blood and liver of rats fed LES diet for 4 weeks; format: in vivo; details: female, Sprague-Dawley, rat, po, 0.25 % of the diet, rats fed dietary LES for 4 weeks
From the text: Sprague-Dawley Rats (Female, 5-weeks old) were purchased from Central Laboratory Animal Inc. (Korea), and experiments were done according with guidelines of the Animal Center at Andong National University (Andong, Korea). Five rats were fed ad libitum with LES and potato starch (0.25% of the diet) for 4 weeks, and then sacrificed. Livers and serum were collected and freeze-dried immediately. One gram of the freeze-dried tissues was extracted with 0.1 M PBS (pH 7.0) (buffer∶tissue ratio (v/w) = 1∶3) at 4°C for 24 hrs, and then centrifuged at 15000 rpm for 1 h. The supernatant protein was further purified by ion exchange chromatography on Biogel resin AG 1-X4 (BioRad), as described by Jeong et al.. Lunasin was further purified by injecting 20 µl of filtrate into the HPLC system equipped with a C18 column (Proteo 90A, Phenomenex Co., Torrance, CA, USA) equilibrated at ambient temperature and an UV detector (295 nm) stabilized with the mobile phase (acetonitrile∶water = 4∶6), at a flow rate of 2.5 ml/min for 15 min. Lunasin was identified by comparison with the retention time of standard synthetic lunasin peak. The lunasin fraction was collected, freeze dried and analyzed by SDS-PAGE and Western-Blot as described above.
Supplementary file pone.0008890.s002.tif: Figure S2 Lunasin was extracted from blood and liver of rats fed control and lunasin-enriched soy (LES) diets for four weeks. […]

[2] = system: MDA-MB-231 tumor xenografts; assay: Breast cancer prevention in MDA-MB-231 xenograft mouse model; format: in vivo, athymic NCr-nu/nu mice; details: for tumor incidence (mice showing tumors) / tumor incidence lower compared with the BBI group / tumor incidence lower compared with the control: seven weeks post-cells injection
Procedure: Human MDA-MB-231 breast cancer cells were obtained from ATCC and grown in Leibovitz's L-15 Medium supplemented with 10% FBS, 100 unit/ml penicillin, and 100 µg/ml streptomycin (Invitrogen), in a humidified atmosphere at 37°C.
Mice protocol was approved by ACUC (University of California, Berkeley, CA, USA). Thirty-two six weeks-old athymic NCr-nu/nu mice (National Cancer Institute, Frederick, MD, USA) were acclimatized for 1 week and randomly divided into four groups (n = 8): control group (receiving PBS), BBI-group (receiving BBI at 20 mg/kg body weight), and two lunasin-groups (receiving synthetic lunasin [Chengdu KaiJie Bio-Pharmaceutical Co., Chengdu, P.R. China] at 20 mg/kg body weight and 4 mg/kg body weight). After two months of i.p. treatment three times a week, mice were injected subcutaneously in the right flank with 1×10^7 MDA-MB-231 cells suspended in 0.1 ml of Matrigel Basement Membrane Matrix (Becton Dickinson, Bedford, MA, USA). Tumor growth was monitored by palpation, and the onset when tumors were detectable was noted. Tumor size was measured with calipers, and tumor volume was calculated assuming the shape as ellipsoid. Tumor incidence in percentage was calculated as the number of tumor-bearing mice divided by the total number of mice in each group, whereas tumor generation was calculated as the total number of tumors divided by total number of mice in each group. The volume of the tumor was determined using the following formula: tumor volume = length × width^2 ×0.523 [41].
At the end of the experiment, animals were sacrificed, and tumors were dissected and weighed. Individual tumors were split for fixation in the Shando Glyo-Fixx™ (Thermo Scientific, Pittsburgh, PA, USA) for histological examination. The paraffin-embedded sections were stained with hematoxylin and eosin (H&E).

[3] = 4 mg/kg body weight i.p., n = 8

level at 672 h ([1]; blood, present as a monomer, Western-blot after anion exchange-HPLC purification, read-out: lunasin concentration in blood): 17.5 ng/mL
tissue level at time at 672 h ([1]; liver, exists as a dimer, Western-blot, read-out: lunasin concentration in liver): 3100 ng/g
Compound: CC[C@H](C)[C@H](NC(=O)[C@H](CCCCN)NC(=O)[C@H](CCC(=O)O)NC(=O)[C@H](CCSC)NC(=O)[C@@H](NC(=O)[C@H](Cc1c[nH]cn1)NC(=O)[C@H](CCCCN)NC(=O)[C@H](CCC(=O)O)NC(=O)[C@H](CS)NC(=O)[C@@H]1CCCN1C(=O)[C@@H](NC(=O)[C@H](CC(C)C)NC(=O)[C@H](CC(N)=O)NC(=O)[C@@H](NC(=O)CNC(=O)[C@H](CCC(N)=O)NC(=O)[C@H](CC(C)C)NC(=O)[C@H](CCC(N)=O)NC(=O)[C@H](CCCCN)NC(=O)[C@H](CCCNC(=N)N)NC(=O)[C@H](CS)NC(=O)[C@H](CO)NC(=O)[C@H](CC(=O)O)NC(=O)[C@H](CCC(N)=O)NC(=O)[C@H](CCC(N)=O)NC(=O)[C@H](Cc1c[nH]cn1)NC(=O)[C@H](CCC(N)=O)NC(=O)[C@H](Cc1c[nH]c2ccccc12)NC(=O)[C@H](CCCCN)NC(=O)[C@@H](N)CO)C(C)C)[C@@H](C)O)[C@@H](C)CC)C(=O)N[C@@H](CCC(N)=O)C(=O)NCC(=O)N[C@@H](CCCNC(=N)N)C(=O)NCC(=O)N[C@@H](CC(=O)O)C(=O)N[C@@H](CC(=O)O)C(=O)N[C@@H](CC(=O)O)C(=O)N[C@@H](CC(=O)O)C(=O)N[C@@H](CC(=O)O)C(=O)N[C@@H](CC(=O)O)C(=O)N[C@@H](CC(=O)O)C(=O)N[C@@H](CC(=O)O)C(=O)N[C@@H](CC(=O)O)C(=O)O [lunasin]
tumor incidence (mice showing tumors) ([2]; 4 mg/kg body weight i.p. three times a week, n = 8): 50%
decrease of the sizes of tumors (tumor volume) versus control mice [2, 3]: 34%
tumor generation lower relative to BBI group [2, 3]: 69%
tumor incidence lower compared with the BBI group ([2]; 4 mg/kg body weight i.p.): 43%
tumor incidence lower compared with the control ([2]; 4 mg/kg body weight i.p.): 33%
tumor generation lower relative to control ([2]; 4 mg/kg body weight i.p., total number of tumors / total number of mice, P = 0.029 vs control, n = 8): 70%
tumor incidence (mice showing tumors) ([2]; 20 mg/kg body weight i.p. three times a week, n = 8): 38%
decrease of the sizes of tumors (tumor volume) versus control mice ([2]; 20 mg/kg body weight i.p., n = 8): 23%
tumor incidence lower compared with the BBI group ([2]; 20 mg/kg body weight i.p.): 57%
tumor incidence lower compared with the control ([2]; 20 mg/kg body weight i.p.): 49%
tumor generation ([2]; 20 mg/kg body weight i.p., versus vehicle-treated group): reduced
weight of tumors at the end of the experiment ([2]; both doses of lunasin (20, 4 mg/kg) compared to control-group (P = 0.2134, 0.1880) and BBI-group (P = 0.0909, 0.0569)): lower
body weight ([2]; i.p. three times a week, BBI 20 mg/kg, lunasin 20 and 4 mg/kg body weight, compared among the four groups, n = 8): No significant differences
appearance of tumors ([2]; lunasin 20 and 4 mg/kg i.p.): delay in the appearance of tumors
